In patent publication US12534696B2, “Systems and methods for immobilizing extracellular matrix material on organ on chip, multilayer microfluidics microdevices, and three-dimensional cell culture systems” (THE TRUSTEES OF THE UNIVERSITY OF PENNSYLVANIA, priority 2015, dated 2026):

What was measured:
[1] = test system: human lung fibroblasts; experiment: Serum-induced fibrosis in the biomimetic five-layer lung fibrosis model; assay type: cell-based; settings: 2 μM PP2 added to medium 24 hours after assembly and maintained; cells cultured in 2D with 2% serum, then 0.2% in the model
[2] = test system: human lung fibroblasts; experiment: Agent-induced injury (fibrotic response) in the five-layer biomimetic lung model; assay type: cell-based; settings: SHH added exogenously at 500 ng/ml
Experimental: In order to test whether the cells in the gel layer can be fed via the channels, one experiment was conducted with only cells in the gel layer (FIG. 39). In particular, human lung fibroblasts and THP-1 macrophage cells were included in the gel layer. The gel was created by adding collegen to physiological aqueous buffer. Additionally or alternatively, any aqueous buffer (e.g., phosphate buffered saline (PBS) buffer) can be used. The aqueous buffer can be kept at a concentration between 0.1 and 2 mg/ml and kept at 4° C. Human lung fibroblasts (100 K cells/ml) and THP-1 macrophage (50 K cells/ml) cells were added to the gel during the liquid phase. The side of the membranes facing the chamber slab (e.g. 242 and 251) were treated with sulfo-sanpah to promote collagen/ECM anchorage. The lower channel slab, lower membrane, and chamber slab were stacked. The gel was then pipetted into the chamber (e.g., 231). After the upper membrane and upper channel slab was placed on top, the biomimetic organ model was clamped and the biomimetic organ model was placed in the incubator at 37° C. The biomimetic organ model was incubated for five days. For continuous perfusion of culture medium at 200 μL/hr in each channel, FGM-2 can be used as the medium having a reduced serum (e.g., between 0-2% and 2%).
In this study, the development of the organ injury model was examined. […]

Compound	effect on serum-induced fibrosis (FIG. 49) [1]	induction of fibrotic response (FIG. 48) [2]
CC(C)(C)n1nc(-c2ccc(Cl)cc2)c2c(N)ncnc21 [PP2]	reduced fibrosis	
sonic hedgehog [SHH]		a fibrotic response can be induced
